According to patent US9878992B2, “GDF-8 inhibitors” (Rigel Pharmaceuticals, Inc., priority 2012, dated 2018):

Experiments:
GDF8 signaling = experiment: AlphaScreen SureFire SMAD3 (p-Ser423/425) assay, GDF8-stimulated cells; assay type: cell-based; conditions: Mus musculus, MPC-11, inhibition of GDF8 signaling; pSMAD readout; MPC11; read-out: GDF pSMAD (MPC11)
Excerpt: [The procedure below names another cell line; the source lists this cell line under the same test.] The p-SMAD-3 (Ser423/425) SureFire® assay has been designed to measure the phosphorylation of endogenous cellular p-SMAD-3 (Ser423/425) in cell lysates and is a system for the screening of both modulators of receptor activation (e.g. agonists and antagonists) as well as agents acting intracellularly, such as small molecule inhibitors of upstream events. The assay will measure p-SMAD-3 (Ser423/425) activation by either cloned or endogenous receptors, and can be applied to primary cells.
P-SMAD-3 (Ser423/425) SureFire® Assay Protocols
Step A: Preparation of Buffers
1× Lysis buffer: 1 ml of 5× Lysis buffer was diluted with 4 ml of sterile water. After dilution, excess 1× Lysis buffer can be frozen and thawed up to 5 times without loss in activity.
Activation buffer: The buffer was warmed slowly to 37° C. and gently mixed to re-suspend. Activation buffer can be stored at room temperature with no loss in activity.
Reaction buffer: The buffer was kept at 4° C. while in use.
AlphaScreen® Protein A IgG Kit: The kit was stored at 4° C. in the dark.
Reaction buffer+Activation buffer+AlphaScreen® Acceptor beads: Reaction buffer (40 parts), Activation Buffer (10 parts) and Acceptor beads (1 part) were mixed and the mixture was stored at room temperature and used the same day. Mixture was added to 384-well plates; excess mixture was discarded.
Dilution buffer+AlphaScreen® Donor beads: Dilution buffer (20 parts) and Donor beads (1 part) were mixed and the mixture was stored at room temperature and used the same day. Excess mixture was discarded.
Assay control samples: After reconstitution in 250 μl of water, lysates were at −20° C. in single use aliquots.
Step B: Preparation of Samples and Cells
96-well Assay Protocol for 293FT and RMS13 adherent cells can be carried out manually or in high throughput with liquid handling robots.
The cells (80 μL, of cells for 96 well plates) were plated in collagen coated tissue culture plates in RPMI or FreeStyle medium (Invitrogen) and incubated overnight. For manual analysis, 6 plates for GDF8, 6 plates for TGFβ, and optionally 6 plates for Alk5ca (ALK5 constitutively active) were used.
The compound dilution plates were prepared as follows: 12 μL of DMSO was transferred into first column of 96-well plate, and 16 μL of DMSO was transferred into columns 2-12 of the 96-well plate. 12 μL of compound solution was transferred into first column of the DMSO-containing 96-well plate. Three-fold dilution was performed up to column 10 of the DMSO-containing 96-well plate.
Step C: Treatment and Analysis
The plate containing cells were treated with compounds for about 10 minutes, and then ligand was added. GDF8 or TGFb was added to plates to stimulate. 293FL cells were stimulated for 90 minutes at 37° C.; and RMS13 cells were stimulated for 60 minutes at 37° C. The medium was then removed from the cells, and 1× Lysis Buffer (about 25 μL) was added and the plate was gently agitated on plate shaker for 5-10 minutes.
The lysate (5 μL) was then placed into 384-well shallow plates avoiding the generation of bubbles. To this, the Reaction Buffer+Activation Buffer+AlphaScreen® Acceptor beads mixture (5 μL) was added. The plate was sealed with adhesive cover and shielded from light (e.g., with metal foil), and agitated gently on plate shaker for 2 hours at room temperature.
Dilution buffer+AlphaScreen® Donor beads (2 μL) was then added, and the plate was intubated on the plate shaker for an additional 1½ hours. After completion, the plate was read on Synergy-4 or Enspire plate reader, using AlphaScreen® pSMAD3® settings.

MAP4K4 = MAP4K4 (Homo sapiens, UniProt O95819); experiment: MAP4K4 inhibition; assay type: biochemical
Excerpt: Such compounds are particularly useful in muscle disorders, such as cachexia and sarcopenia as MAP4K4 acts as a suppressor of skeletal muscle differentiation. See, Wang M, Amano S U, Flach R J, Chawla A, Aouadi M, Czech P. Molecular and cellular biology. 2013 February; 33(4): 678-87.

Sequence of MAP4K4 (O95819 whole entry, species assumed): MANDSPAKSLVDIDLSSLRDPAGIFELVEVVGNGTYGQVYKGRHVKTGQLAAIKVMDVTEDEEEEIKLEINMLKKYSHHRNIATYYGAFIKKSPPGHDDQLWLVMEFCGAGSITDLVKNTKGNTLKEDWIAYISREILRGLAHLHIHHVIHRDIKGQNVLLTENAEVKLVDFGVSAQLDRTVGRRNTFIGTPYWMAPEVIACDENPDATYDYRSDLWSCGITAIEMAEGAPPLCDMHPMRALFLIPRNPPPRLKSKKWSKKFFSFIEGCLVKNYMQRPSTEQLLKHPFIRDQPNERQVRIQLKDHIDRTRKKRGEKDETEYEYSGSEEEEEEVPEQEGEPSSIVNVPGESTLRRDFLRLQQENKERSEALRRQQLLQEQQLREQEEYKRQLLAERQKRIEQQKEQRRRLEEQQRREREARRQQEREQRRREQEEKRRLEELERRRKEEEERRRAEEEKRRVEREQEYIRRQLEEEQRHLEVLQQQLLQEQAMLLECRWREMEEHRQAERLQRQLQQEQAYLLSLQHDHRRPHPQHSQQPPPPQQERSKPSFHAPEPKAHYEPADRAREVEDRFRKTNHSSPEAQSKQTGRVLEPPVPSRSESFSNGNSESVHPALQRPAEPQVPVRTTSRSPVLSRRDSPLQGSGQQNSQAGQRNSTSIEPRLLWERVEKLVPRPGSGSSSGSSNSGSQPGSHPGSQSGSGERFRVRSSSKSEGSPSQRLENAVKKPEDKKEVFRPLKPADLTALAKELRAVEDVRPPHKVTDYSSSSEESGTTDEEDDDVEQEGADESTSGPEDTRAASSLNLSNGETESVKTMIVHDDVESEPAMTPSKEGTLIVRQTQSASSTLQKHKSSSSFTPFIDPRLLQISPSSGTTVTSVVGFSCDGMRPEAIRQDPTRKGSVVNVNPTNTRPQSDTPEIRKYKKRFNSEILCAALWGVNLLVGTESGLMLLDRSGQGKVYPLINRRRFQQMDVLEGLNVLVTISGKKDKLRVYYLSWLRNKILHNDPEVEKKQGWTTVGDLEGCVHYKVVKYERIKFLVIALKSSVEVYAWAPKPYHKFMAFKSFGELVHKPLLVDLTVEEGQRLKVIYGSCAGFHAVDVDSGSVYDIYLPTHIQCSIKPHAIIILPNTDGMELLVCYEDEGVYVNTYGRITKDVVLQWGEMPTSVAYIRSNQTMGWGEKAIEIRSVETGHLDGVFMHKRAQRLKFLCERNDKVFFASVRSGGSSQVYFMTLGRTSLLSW

Row | IC50 (GDF8 signaling) [nM] | IC50 (MAP4K4) [nM] | Compound
1 | 1150 |  | Cc1cccc(-c2ncccc2-c2ccc3ncccc3c2)c1 [Compound 208, 6-(2-m-Tolylpyridin-3-yl)quinoline]
2 | 2560 |  | Cc1cc(-c2ncccc2-c2ccc3ncnc(N4CCOCC4)c3c2)ccc1F [Compound 385, 4-(6-(2-(4-Fluoro-3-methylphenyl)pyridin-3-yl)quinazolin-4-yl)morpholine]
3 | 1440 |  | [2H]C([2H])([2H])c1cccc(-c2ncccc2-c2ccc3ncc(C(C)=O)n3c2)c1 [Compound 606, 1-(6-(2-(3-(Methyl-d3)phenyl)pyridin-3-yl)imidazo[1,2-a]pyridin-3-yl)ethan-1-one]
4 | 535 |  | Cc1cc(-c2ncc(F)cc2-c2ccc3[nH]ncc3c2)ccc1F [Compound 10, 5-(5-Fluoro-2-(4-fluoro-3-methylphenyl)pyridin-3-yl)-1H-indazole]
5 | 537 |  | Cc1cc(-c2ncccc2-c2ccc3ncnc(OCCN4CCOCC4)c3c2)ccc1F [Compound 425, 4-(2-((6-(2-(4-Fluoro-3-methylphenyl)pyridin-3-yl)quinazolin-4-yl)oxy)ethyl)morpholine]
6 | 207 |  | Fc1ccc(Cl)cc1-c1ncccc1-c1ccc2nccn2n1 [Compound 937, 6-(2-(5-Chloro-2-fluorophenyl)pyridin-3-yl)imidazo[1,2-b]pyridazine]
7 | 2040 |  | Cc1cc(-c2ncccc2-c2ccc3ncccc3c2)ccc1F [Compound 207, 6-(2-(4-Fluoro-3-methylphenyl)pyridin-3-yl)quinoline]
8 |  | < 500 | Nc1ncnc2ccc(-c3cccnc3-c3cccc(O)c3)cc12 [Compound 456, 3-(3-(4-Aminoquinazolin-6-yl)pyridin-2-yl)phenol]
9 |  | < 500 | Nc1ncnc2ccc(-c3cccnc3-c3cc(F)cc(Cl)c3)cc12 [Compound 460, 6-(2-(3-Chloro-5-fluorophenyl)pyridin-3-yl)quinazolin-4-amine]
10 |  | < 500 | Nc1ncnc2ccc(-c3cccnc3-c3ccc(F)c(Cl)c3)cc12 [Compound 448, 6-(2-(3-Chloro-4-fluorophenyl)pyridin-3-yl)quinazolin-4-amine]
11 | 968 |  | Cc1cc(-c2ncccc2-c2ccc3ncc(C(=O)N[C@@H]4C[C@@H]5CCCN5C(C)(C)C4)n3c2)ccc1F [Compound 744, N-((7R,8aS)-5,5-Dimethyloctahydroindolizin-7-yl)-6-(2-(4-fluoro-3-methylphenyl)pyridin-3-yl)imidazo[1,2-a]pyridine-3-carboxamide]
12 | 5620 |  | Cc1cc(-c2ncc(CO)cc2-c2ccc3nccnc3c2)ccc1F [Compound 222, (6-(4-Fluoro-3-methylphenyl)-5-(quinoxalin-6-yl)pyridin-3-yl)methanol]
13 | 558 |  | COc1ncnc2ccc(-c3cccnc3-c3cccc(O)c3)cc12 [Compound 378, 3-(3-(4-Methoxyquinazolin-6-yl)pyridin-2-yl)phenol]
14 |  | < 500 | Nc1ncnc2ccc(-c3cccnc3-c3cc(Cl)ccc3F)cc12 [Compound 818, 6-(2-(5-Chloro-2-fluorophenyl)pyridin-3-yl)quinazolin-4-amine]
15 | 2260 |  | COc1cc(-c2cnc3ccc(-c4cccnc4-c4ccc(F)c(C)c4)cn23)cc(OC)c1OC [Compound 577, 6-(2-(4-Fluoro-3-methylphenyl)pyridin-3-yl)-3-(3,4,5-trimethoxyphenyl)imidazo[1,2-a]pyridine]
16 | 3230 |  | Cc1cccc(-c2ncccc2-c2ccc3ncn(CCCON)c3c2)c1 [Compound 38]
17 |  | < 500 | Cc1cc(-c2ncccc2-c2ccc3[nH]ncc3c2)ccc1F [Compound 63, 5-(2-(4-Fluoro-3-methylphenyl)pyridin-3-yl)-1H-indazole]
18 | 366 |  | Cc1cc(-c2ncccc2-c2ccn3ncc(C(=O)N[C@@H]4C[C@@H]5CCCN5C(C)(C)C4)c3c2)ccc1F [Compound 745, N-((7R,8aS)-5,5-Dimethyloctahydroindolizin-7-yl)-5-(2-(4-difluoro-3-methylphenyl)pyridin-3-yl)pyrazolo[1,5-a]pyridine-3-carboxamide]
19 |  | < 500 | O=c1nc[nH]c2ccc(-c3cccnc3-c3cccc(Cl)c3)cc12 [Compound 389, 6-(2-(3-Chlorophenyl)pyridin-3-yl)quinazolin-4(1H)-one]
20 |  | < 500 | Nc1ncnc2ccc(-c3cccnc3-c3cc(O)cc(F)c3)cc12 [Compound 494, 3-(3-(4-Aminoquinazolin-6-yl)pyridin-2-yl)-5-fluorophenol]

Row | Compound | IC50 (GDF8 signaling) [nM] | IC50 (MAP4K4) [nM]
21 | Cc1cc(-c2ncccc2-c2ccc3nn(COP(=O)(O)O)cc3c2)ccc1F [Compound 172, [5-(2-(4-Fluoro-3methylphenyl)pyridin-3-yl)-2H-indazol-2-yl]methyl dihydrogen phosphate] | 187 | 
